Data published in patent US8106055B2, “Substituted amide compounds” (Gruenenthal GmbH, priority 2007, dated 2012).

Key:
[1] = biological target: T1, human bradykinin 1 receptor (B1R) (Homo sapiens, UniProt P46663); assay: Functional investigation on the human bradykinin 1 receptor (B1R), Ca2+ FLIPR assay in CHO K1 hB1R cells; format: cell-based; settings: B1R antagonism human; test substance 10 μM; Ca2+ FLIPR, CHO K1 hB1R cells
T1 construct: expressed in transfected cells; host or cells: CHO K1 cells
T1 sequence (P46663 1-353): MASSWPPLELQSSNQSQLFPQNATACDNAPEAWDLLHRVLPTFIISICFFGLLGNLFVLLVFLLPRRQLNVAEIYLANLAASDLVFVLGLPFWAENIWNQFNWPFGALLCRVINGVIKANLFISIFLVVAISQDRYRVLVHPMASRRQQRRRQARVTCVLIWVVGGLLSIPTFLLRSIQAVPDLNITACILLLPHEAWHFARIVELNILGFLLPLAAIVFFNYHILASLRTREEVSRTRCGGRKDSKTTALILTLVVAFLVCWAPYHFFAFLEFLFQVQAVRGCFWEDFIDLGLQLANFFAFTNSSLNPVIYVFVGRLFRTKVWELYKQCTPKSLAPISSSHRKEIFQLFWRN
Summary of the method: (§1)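 Fluo-4 Ca2+ readout, peak fluorescence. Stable CHO K1 transfectants; compound pre-incubated 10-20 min, then EC80 agonist—Lys-Des-Arg9-BK for hB1R, Des-Arg9-BK for rB1R. % inhibition vs maximal inhibition; IC50 from multiple concentrations, duplicate/triplicate, ≥2 independent runs.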

[2] = biological target: T2, bradykinin 1 receptor (B1R) of the rat (Rattus norvegicus, UniProt P97583); assay: Functional investigation on the rat bradykinin 1 receptor (B1R), Ca2+ FLIPR assay in CHO K1 rB1R cells; format: cell-based; settings: B1R antagonism rat; test substance 10 μM; Ca2+ FLIPR, CHO K1 rB1R cells
T2 construct: expressed in transfected cells; host or cells: CHO K1 cells
T2 sequence (P97583 1-337): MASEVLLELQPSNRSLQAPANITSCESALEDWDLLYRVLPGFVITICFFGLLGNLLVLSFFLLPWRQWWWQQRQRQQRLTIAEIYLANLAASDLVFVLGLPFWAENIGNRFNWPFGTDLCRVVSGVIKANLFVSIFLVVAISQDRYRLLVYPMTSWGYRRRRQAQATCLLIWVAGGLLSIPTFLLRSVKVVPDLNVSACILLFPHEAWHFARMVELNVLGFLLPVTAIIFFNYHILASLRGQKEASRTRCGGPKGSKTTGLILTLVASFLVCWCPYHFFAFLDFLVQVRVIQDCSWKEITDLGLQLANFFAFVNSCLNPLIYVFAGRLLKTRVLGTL
Summary of the method: as §1

SMILES | B1R Ant. h [10 μM] % Inhibition [1] [%] | B1R Ant. r [10 μM] % Inhibition [2] [%]
CN(C)C(c1ccccc1)C1CCC(NC(=O)COCC2CCCN2S(=O)(=O)c2c(Cl)cc(Cl)cc2Cl)CC1 (stereo not drawn) [Example 612, N-[4-(Dimethylaminophenylmethyl)-cyclohexyl]-2-[1-(2,4,6-trichlorobenzenesulfonyl)-pyrrolidin-2-ylmethoxy]-acetamide] | 103 | 64
COc1cc(C)c(S(=O)(=O)N2CCN(CCOCC(=O)NCC3CCC(C(c4cccc(F)c4)N(C)C)CC3)CC2)c(C)c1C (stereo not drawn) [Example 223] | 52 | −5
COc1cc(C)c(S(=O)(=O)N2CCC(OCC(=O)NCC3CCC(C(c4cccc(F)c4)N(C)C)CC3)C2)c(C)c1 (stereo not drawn) [Example 265] | 93 | 97
CN(C)C(c1ccc(Cl)cc1)C1CCC(CCNC(=O)COCCN(C)S(=O)(=O)c2ccc(F)cc2)CC1 (stereo not drawn) [Example 241] | 29 | 8
Cc1ccc(S(=O)(=O)N(C)CCOCC(=O)NCCC2CCC(C(c3cccc(F)c3)N(C)C)CC2)cc1 (stereo not drawn) [Example 240] | 2 | −14
Cc1cc(C)c(S(=O)(=O)N(C)CCOCC(=O)NC2CCC(C(c3cccs3)N(C)C)CC2)c(C)c1 (stereo not drawn) [Example 235] | 31 | −8
